Measurements published in patent US20140106967A1, “AUXIN PLANT GROWTH REGULATORS” (The Governors of The University of Alberta, priority 2011, published 2014).

Legend:
[1] = tested on: Pisum sativum L. cv. Carneval; assay: Field study, seed yield of pea 'Carneval' (Table P1); format: in vivo; settings: for Seed yield per 1 meter row: sprayed at about 5% first flower
Description: In a field study, pea (Pisum sativum L. cv. Carneval) seed with a germination rate assessed at greater than 95% was planted on May 11, 2011 into black-loam soil that had been clean-cultivated for two previous growing seasons located at the Edmonton Research Station (ER31) of the University of Alberta, Edmonton, Alberta, Canada. The treatment plots measured 2 m wide by 3 m long, comprising rows 50 cm apart. The seeds were precision-drilled by hand at 5 cm intervals in each row. At the time of seeding, fresh TagTeam® granular rhizobial inoculant was drilled with the seed at the rate of 1.11 g per 6 m^2. No herbicides or pesticides were used during this study and plots were manually weeded to maintain weed-free plots. Seed emergence began on May 26, 2011 (15 days post-planting) due to cool temperature conditions after planting. Precipitation during the growing season was within the regional average. The treatments consisted of one application of aqueous 4-methyl-indole-3-acetic acid (4-ME-IAA) solutions at 1×10^−6M, 1×10^−5M, 5×10^−5M, or 1×10^−4M in 0.1% (v/v) Tween 80, or an aqueous control solution (0.1% [v/v] Tween 80) applied to the plants on Jul. 10, 2011, when about 5% of the plants were in first flower (1 treatment per plot; 5 treatments/plots total). A separate Chapin 20000-type 4 L pneumatic sprayer was used for applying each treatment solution; each sprayer was equipped with a medium-delivery blue fan nozzle designed to deliver 1.4 L per minute at the normal operating pressure of 40 PSI. Each plot was sprayed with a total of 0.7 L of solution to obtain uniform coverage. At the time of spraying, the mean day temperature was 15.9° C., the mean wind speed was 7 km/h, the relative humidity was 86%, and the sky was overcast. Harvesting (by hand) took place Aug. 27 to 30, 2011 after the plants had desiccated naturally. The pods were further dried for six days in a forced-air drier at 30° C. prior to obtaining seed weights. Each plot was harvested in eight groups of 20 contiguous plants arranged so that each group (1 m section of row) had at least two plants immediately next to it at each end. The treatment replication unit was 20 contiguous plants as diagramed in Figure P1. As the between-row spacing was 50 cm, the yield from each group represented that from 0.5 m^2

[2] = tested on: 'Harvest HRS'-Spring hard-red wheat; assay: Wheat growth chamber experiment, with or without heat stress (Tables W2, W3); format: in vivo, Triticum aestivum
Method: In another experiment, seeds of the wheat cultivar Harvest HRS were planted at an approximate depth of 1.5 cm in 5 inch square plastic pots (6 inch pot depth; 3 seeds per pot) in 1:1 Sunshine #4 potting mix (Sun Gro Horticulture, Vancouver, Canada) and sand. The seedlings were thinned to one seedling per pot approximately 2 weeks after seeding. Plants were grown in a Conviron growth chamber maintained at 24° C. light/20° C. dark (16 hours light/8 hours dark photoperiod; using 54W/835/HO high fluorescent bulbs [Phillips, Holland] with an average photon flux density of 540 μE m^−2s^−2. Plant were fertilized with 175 ppm 20-20-20 (N:P:K) every 3 to 4 days.
Aqueous solutions of 4-ME-IAA at 1×10^−6, 1×10^−5, or 1×10^−4 M in 0.1% (v/v) Tween 80 or a control solution (0.1% [v/v] Tween 80) were applied (sprayed on plant to cover) when the majority of the plants were at the BBCH scale 45 developmental stage (late boot stage where the flag leaf sheath [boot] is swollen with the inflorescence, but the inflorescence has not emerged from the boot). The experiment was arranged in a completely randomized design within the growth chamber.
The heat stress treatment was imposed by moving plants to receive the heat stress to a different growth chamber ((heat stress chamber) for 6 days. In the heat stress chamber, the light cycle began at 7:00 hours at a 24° C. air temperature. The heat treatment began at 11:00 hours (33° C. air temperature) and was maintained for 6 hours (until 17:00 hours). Following the heat treatment, the remainder of the light cycle was maintained at a 24° C. air temperature. The dark cycle (began at 23:00 hours) was maintained at 20° C. The photoperiod was 16 h light/8 h dark at an average photon flux density of 492 μE m^−2s^−2 using 54W/835/HO high fluorescent bulbs (Phillips, Holland). After 6 days, the heat stress-treated plants were returned to the original growth chamber maintained at non-heat stress conditions to develop to maturity.

[3] = 1×10^−4 M, 6 days of heat stress (33° C. 6 h/day)
[4] = 1×10^−5 M, 6 days of heat stress (33° C. 6 h/day)
[5] = 1×10^−6 M, 6 days of heat stress (33° C. 6 h/day)

For Cc1cccc2[nH]cc(CC(=O)O)c12 [4-ME-IAA, 4-methyl-indole-3-acetic acid], the “increase in seed yield vs control” value ([1]; 1×10^−4 M) was 28%, the “Seed yield per 1 meter row” value ([1]; 1×10^−4 M) was 123.20 ± 9.19 g and the “Seed yield per 1 meter row” value ([1]; 1×10^−5 M) was 105.63 ± 10.72 g. The “increase in seed yield vs control” value ([1]; 1×10^−6 M) was 43%, the “Seed yield per 1 meter row” value ([1]; 1×10^−6 M) was 137.84 ± 10.16 g and the “Seed yield per 1 meter row” value ([1]; 5×10^−5 M) was 78.85 ± 12.06 g. The “Length of spike peduncle” value [2, 3] was 70 ± 10 mm, the “Number of spikes per plant” value [2, 3] was 25 ± 3 and the “Seed number per plant” value [2, 3] was 130 ± 23. The “Seed number per spike” value [2, 3] was 5 ± 1, the “Seed weight per plant” value [2, 3] was 4.08 ± 0.67 g and the “increase in seed number per plant vs control” value ([2]; 1×10^−4 M, heat stress) was 73%. For the same compound, the “increase in seed weight per plant vs control” value ([2]; 1×10^−4 M, heat stress) was 72%, the “Length of spike peduncle” value ([2]; 1×10^−4 M, non-heat stress) was 62 ± 5 mm and the “Number of spikes per plant” value ([2]; 1×10^−4 M, non-heat stress) was 25 ± 1. The “Seed number per plant” value ([2]; 1×10^−4 M, non-heat stress) was 163 ± 32, the “Seed number per spike” value ([2]; 1×10^−4 M, non-heat stress) was 7 ± 1 and the “Seed weight per plant” value ([2]; 1×10^−4 M, non-heat stress) was 4.87 ± 0.95 g. For the same compound, the “Length of spike peduncle” value [2, 4] was 57 ± 5 mm, the “Number of spikes per plant” value [2, 4] was 24 ± 4 and the “Seed number per plant” value [2, 4] was 57 ± 18. The “Seed number per spike” value [2, 4] was 3 ± 1, the “Seed weight per plant” value [2, 4] was 1.83 ± 0.57 g and the “Length of spike peduncle” value ([2]; 1×10^−5 M, non-heat stress) was 82 ± 7 mm. For the same compound, the “Number of spikes per plant” value ([2]; 1×10^−5 M, non-heat stress) was 22 ± 3, the “Seed number per plant” value ([2]; 1×10^−5 M, non-heat stress) was 256 ± 42 and the “Seed number per spike” value ([2]; 1×10^−5 M, non-heat stress) was 12 ± 1. For the same compound, the “Seed weight per plant” value ([2]; 1×10^−5 M, non-heat stress) was 7.56 ± 1.36 g, the “Length of spike peduncle” value [2, 5] was 72 ± 7 mm and the “Number of spikes per plant” value [2, 5] was 28 ± 3. For the same compound, the “Seed number per plant” value [2, 5] was 151 ± 43, the “Seed number per spike” value [2, 5] was 5 ± 1 and the “Seed weight per plant” value [2, 5] was 4.49 ± 1.25 g. For the same compound, the “increase in number of floral spikes per plant vs control” value ([2]; 1×10^−6 M, heat stress) was 40%, the “increase in seed number per plant vs control” value ([2]; 1×10^−6 M, heat stress) was 101% and the “increase in seed weight per plant vs control” value ([2]; 1×10^−6 M, heat stress) was 90%. For the same compound, the “Length of spike peduncle” value ([2]; 1×10^−6 M, non-heat stress) was 63 ± 6 mm, the “Number of spikes per plant” value ([2]; 1×10^−6 M, non-heat stress) was 24 ± 3 and the “Seed number per plant” value ([2]; 1×10^−6 M, non-heat stress) was 254 ± 81. For the same compound, the “Seed number per spike” value ([2]; 1×10^−6 M, non-heat stress) was 10 ± 2 and the “Seed weight per plant” value ([2]; 1×10^−6 M, non-heat stress) was 8.17 ± 2.66 g.
